Data reported in publication PMC11995724, “Antibiotic target discovery by integrated phenotypic and activity-based profiling of electrophilic fragments” (Cell chemical biology, 2025).

Test: in vitro
Settings: human, hek293t cells

| Structure (SMILES) | viability at 48 h, 25 µM [%] |
| --- | --- |
| Cc1n[nH]c(C)c1C=C(C#N)C(=O)Nc1ccc(SC(F)F)cc1 [8-E08, 2-cyano-N-{4-[(difluoromethyl)sulfanyl]phenyl}-3-(3,5-dimethyl-1H-pyrazol-4-yl)prop-2-enamide] | 78.2 |
| C=CCNC(=O)C(C#N)=Cc1ccccc1[N+](=O)[O-] [8-E09, 2-cyano-3-(2-nitrophenyl)-N-(prop-2-en-1-yl)prop-2-enamide] | 109 |
| N#CC(=Cc1cc(F)ccc1F)C(=O)Nc1ccc(F)cc1 [8-E10, 2-cyano-3-(2,5-difluorophenyl)-N-(4-fluorophenyl)prop-2-enamide] | 87.5 |
| COc1ccccc1NC(=O)C(C#N)=Cc1ccccc1F [8-E11, 2-cyano-3-(2-fluorophenyl)-N-(2-methoxyphenyl)prop-2-enamide] | 67.4 |
| Cc1ccc(C=C(C#N)C(=O)NC2CCCC2)cc1C [8-E12, 2-cyano-N-cyclopentyl-3-(3,4-dimethylphenyl)prop-2-enamide] | 54.9 |
| Cc1cc(C)c(NC(=O)C(C#N)=Cc2ccccc2C)c(C)c1 [8-E13, 2-cyano-3-(2-methylphenyl)-N-(2,4,6-trimethylphenyl)prop-2-enamide] | 37.8 |
| Cc1cc(C=C(C#N)C(=O)Nc2ccccc2)c(C)n1C1CC1 [8-E14, 2-cyano-3-(1-cyclopropyl-2,5-dimethyl-1H-pyrrol-3-yl)-N-phenylprop-2-enamide] | 91.7 |
| N#CC(=Cc1ccccc1)C(=O)Nc1ccc(N2CCCCC2)cc1 [8-E15, 2-cyano-3-phenyl-N-[4-(piperidin-1-yl)phenyl]prop-2-enamide] | 64.7 |
| Cc1ccc(C=C(C#N)C(=O)Nc2ccccc2C(F)(F)F)cc1 [8-E16, 2-cyano-3-(4-methylphenyl)-N-[2-(trifluoromethyl)phenyl]prop-2-enamide] | 96.3 |
| Cc1ccc(C=C(C#N)C(=O)N2CCCC2)cc1 [8-E17, 3-(4-methylphenyl)-2-(pyrrolidine-1-carbonyl)prop-2-enenitrile] | 75.4 |
| COc1ccccc1NC(=O)C(C#N)=Cc1ccc(F)cc1 [8-E18, 2-cyano-3-(4-fluorophenyl)-N-(2-methoxyphenyl)prop-2-enamide] | 81 |
| Cc1cc(C)c(NC(=O)C(C#N)=Cc2ccccc2)c(C)c1 [8-E19, 2-cyano-3-phenyl-N-(2,4,6-trimethylphenyl)prop-2-enamide] | 29.4 |
| N#CC(=CNc1ccc(F)cc1)C(=O)NCc1ccccc1 [8-E20, N-benzyl-2-cyano-3-[(4-fluorophenyl)amino]prop-2-enamide] | 98.3 |
| C=CCNC(=O)C(C#N)=Cc1ccc(OC)c(O)c1 [8-E21, 2-cyano-3-(3-hydroxy-4-methoxyphenyl)-N-(prop-2-en-1-yl)prop-2-enamide] | 75.7 |
| Cc1c(C=C(C#N)C(=O)NCC2(c3ccccc3)CC2)cc(C#N)n1C [8-E22, 2-cyano-3-(5-cyano-1,2-dimethyl-1H-pyrrol-3-yl)-N-[(1-phenylcyclopropyl)methyl]prop-2-enamide] | 79.4 |
| N#CC(=Cc1ccccc1Cl)C(=O)Nc1ccc2c(c1)OCCO2 [8-F03, 3-(2-chlorophenyl)-2-cyano-N-(2,3-dihydro-1,4-benzodioxin-6-yl)prop-2-enamide] | 94.9 |
| N#CC(=Cc1cc(C#N)cs1)C(=O)NC(N)=O [8-F04, {2-cyano-2-[(4-cyanothiophen-2-yl)methylidene]acetyl}urea] | 85.8 |
| N#CC(=Cc1ccccc1OCc1ccccc1)C(=O)NC(N)=O [8-F05, (2-{[2-(benzyloxy)phenyl]methylidene}-2-cyanoacetyl)urea] | 84.9 |
| COc1cccc(NC(=O)C(C#N)=Cc2cccc(Cl)c2Cl)c1 [8-F06, 2-cyano-3-(2,3-dichlorophenyl)-N-(3-methoxyphenyl)prop-2-enamide] | 29.8 |
| N#CC(=Cc1ccc(O)c(O)c1)C(=O)Nc1cccc(Cl)c1Cl [8-F07, 2-cyano-N-(2,3-dichlorophenyl)-3-(3,4-dihydroxyphenyl)prop-2-enamide] | 77.6 |
| CC(=Cc1ccccc1)C=C(C#N)C(=O)Nc1nccs1 [8-F08, 2-cyano-4-methyl-5-phenyl-N-(1,3-thiazol-2-yl)penta-2,4-dienamide] | 84.2 |
| COc1ccc(NC(=O)C(C#N)=Cc2cccc(O)c2)cc1OC [8-F09, 2-cyano-N-(3,4-dimethoxyphenyl)-3-(3-hydroxyphenyl)prop-2-enamide] | 86.1 |
| N#CC(=Cc1cccs1)C(=O)Nc1ccc(F)cc1 [8-F10, 2-cyano-N-(4-fluorophenyl)-3-(thiophen-2-yl)prop-2-enamide] | 102 |
| Cc1ccc(NC(=O)C(C#N)=Cc2cccc(F)c2)cc1 [8-F11, 2-cyano-3-(3-fluorophenyl)-N-(4-methylphenyl)prop-2-enamide] | 85.7 |
| CC1CCCCC1NC(=O)C(C#N)=CC=Cc1ccccc1[N+](=O)[O-] (centres unmarked) [8-F12, 2-cyano-N-(2-methylcyclohexyl)-5-(2-nitrophenyl)penta-2,4-dienamide] | 36 |

| Structure (SMILES) | viability at 48 h, 25 µM [%] |
| --- | --- |
| COc1ccc(C=C(C#N)C(=O)Nc2cccc3c2C(=O)NC3=O)cc1 [8-F13, 2-cyano-N-(1,3-dioxo-2,3-dihydro-1H-isoindol-4-yl)-3-(4-methoxyphenyl)prop-2-enamide] | 119 |
| N#CC(=Cc1ccc(OC(F)F)cc1)C(=O)Nc1nccs1 [8-F14, 2-cyano-3-[4-(difluoromethoxy)phenyl]-N-(1,3-thiazol-2-yl)prop-2-enamide] | 113 |
| COc1cc(C=C(C#N)C(=O)NC(C)C)cc(OC)c1 [8-F15, 2-cyano-3-(3,5-dimethoxyphenyl)-N-(propan-2-yl)prop-2-enamide] | 82.4 |
| N#CC(=Cc1cccc([N+](=O)[O-])c1)C(=O)NCc1ccc(Cl)cc1 [8-F16, N-[(4-chlorophenyl)methyl]-2-cyano-3-(3-nitrophenyl)prop-2-enamide] | 0.958 |
| Cn1ccc(NC(=O)C(C#N)=Cc2ncccc2C(F)(F)F)n1 [8-F17, 2-cyano-N-(1-methyl-1H-pyrazol-3-yl)-3-[3-(trifluoromethyl)pyridin-2-yl]prop-2-enamide] | 95.2 |
| Cc1cccc(C=C(C#N)C(=O)NC(C)c2ccccc2)c1 (centres unmarked) [8-F18, 2-cyano-3-(3-methylphenyl)-N-(1-phenylethyl)prop-2-enamide] | 36.3 |
| N#CC(=CC=Cc1ccccc1[N+](=O)[O-])C(N)=O [8-F19, 2-cyano-5-(2-nitrophenyl)penta-2,4-dienamide] | 1.55 |
| N#CC(=Cc1ccc(-c2ccccc2Cl)o1)C(=O)N1CCCCC1 [8-F20, 3-[5-(2-chlorophenyl)furan-2-yl]-2-(piperidine-1-carbonyl)prop-2-enenitrile] | 66.6 |
| N#CC(=Cc1cc([N+](=O)[O-])ccc1Cl)C(N)=O [8-F21, 3-(2-chloro-5-nitrophenyl)-2-cyanoprop-2-enamide] | 101 |
| N#CC(=Cc1cc2c(cc1[N+](=O)[O-])OCO2)C(=O)NC1CCCCC1 [8-F22, 2-cyano-N-cyclohexyl-3-(6-nitro-1,3-dioxaindan-5-yl)prop-2-enamide] | 87.7 |
| COc1ccc(C=C(C#N)C(=O)Nc2ccccc2[N+](=O)[O-])cc1 [8-G03, 2-cyano-3-(4-methoxyphenyl)-N-(2-nitrophenyl)prop-2-enamide] | 96.8 |
| CCc1ccc(NC(=O)C(C#N)=Cc2cccnc2)cc1 [8-G04, 2-cyano-N-(4-ethylphenyl)-3-(pyridin-3-yl)prop-2-enamide] | 86.1 |
| CC1CN(C(=O)C(C#N)=Cc2ccc(OC(F)F)cc2)CC(C)O1 (centres unmarked) [8-G05, 3-[4-(difluoromethoxy)phenyl]-2-(2,6-dimethylmorpholine-4-carbonyl)prop-2-enenitrile] | 97.8 |
| Cc1c(C=C(C#N)C(=O)Nc2ccccn2)cc(C#N)n1C [8-G06, 2-cyano-3-(5-cyano-1,2-dimethyl-1H-pyrrol-3-yl)-N-(pyridin-2-yl)prop-2-enamide] | 94.1 |
| Cc1ccsc1C=C(C#N)C(=O)NC1CCCCC1C (centres unmarked) [8-G07, 2-cyano-N-(2-methylcyclohexyl)-3-(3-methylthiophen-2-yl)prop-2-enamide] | 61.1 |
| N#CC(=Cc1cc(F)ccc1F)C(=O)NC1CCCCC1 [8-G08, 2-cyano-N-cyclohexyl-3-(2,5-difluorophenyl)prop-2-enamide] | 9.88 |
| COc1ccc(C=C(C#N)C(=O)Nc2ccccc2OC)cc1 [8-G09, 2-cyano-N-(2-methoxyphenyl)-3-(4-methoxyphenyl)prop-2-enamide] | 80.4 |
| Cc1ccc(C=C(C#N)C(=O)NC2CCCCC2)cc1C [8-G10, 2-cyano-N-cyclohexyl-3-(3,4-dimethylphenyl)prop-2-enamide] | 59.4 |
| CCc1ccc(C=C(C#N)C(=O)Nc2cc(C)c(Cl)cc2OC)cc1 [8-G11, N-(4-chloro-2-methoxy-5-methylphenyl)-2-cyano-3-(4-ethylphenyl)prop-2-enamide] | 92 |
| CC(C)NC(=O)C(C#N)=Cc1ccc(OC(C)C)cc1 [8-G12, 2-cyano-N-(propan-2-yl)-3-[4-(propan-2-yloxy)phenyl]prop-2-enamide] | 64.9 |
| N#CC(=Cc1cccs1)C(=O)Nc1nccs1 [8-G13, 2-cyano-N-(1,3-thiazol-2-yl)-3-(thiophen-2-yl)prop-2-enamide] | 110 |
| Cc1cc(C=C(C#N)C(=O)NCc2ccccc2)c(C)n1C1CC1 [8-G14, N-benzyl-2-cyano-3-(1-cyclopropyl-2,5-dimethyl-1H-pyrrol-3-yl)prop-2-enamide] | 74 |
| CSc1ccc(C=C(C#N)C(=O)Nc2c(C)cc(C)cc2C)cc1 [8-G15, 2-cyano-3-[4-(methylsulfanyl)phenyl]-N-(2,4,6-trimethylphenyl)prop-2-enamide] | 111 |
| Cc1ccc(C=C(C#N)C(=O)Nc2ccccc2C)cc1 [8-G16, 2-cyano-N-(2-methylphenyl)-3-(4-methylphenyl)prop-2-enamide] | 118 |
| N#CC(=Cc1ccccc1)C(=O)NC1CCCCCCC1 [8-G17, 2-cyano-N-cyclooctyl-3-phenylprop-2-enamide] | 46.6 |
